In US20220274980A1, “PHARMACOLOGICAL INHIBITORS OF THE ENL YEATS DOMAIN” (priority 2019, published 2022):

Key:
ENL(YEATS)-HiBiT = molecular target: T1, ENL(YEATS)-HiBiT (Homo sapiens, UniProt Q03111); test: cell-based
T1 sequence (Q03111 1-138 limits assumed): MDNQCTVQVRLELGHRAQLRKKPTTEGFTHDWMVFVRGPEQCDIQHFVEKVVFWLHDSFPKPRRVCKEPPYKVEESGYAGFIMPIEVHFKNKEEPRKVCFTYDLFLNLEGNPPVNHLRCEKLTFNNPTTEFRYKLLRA
Protocol: Cellular thermal shift assay (CETSA). […] Cells were transferred to 384-well (20,000 cells per well in 20 μL) or 1,536-well (3,000 cells per well in 4 μL) plates and drug was transferred using a 100 nL pin tool for 384-well plates or acoustic transfer (Labcyte, Echo Liquid Handler) for 1,536-well plates. Luminescent detection of HiBiT was performed by combining an equal volume of Nano-Glo HiBiT Lytic Reagent (Promega, HiBiT Lytic Detection System, Cat. No. N3040) in each well. […] Briefly, cells were treated with drug, washed with PBS, heated to various temperatures in a thermocycler, cooled to room temperature, lysed by three rounds of freeze-thaw, and then clarified lystaes were subjected to immunoblot analysis.

[1] = molecular target: T2, ENL YEATS domain (association with H3K27cr) (Homo sapiens, UniProt Q03111); test: biochemical; details: ENL (YEATS)-H3K27cr HTRF (IC50, μM)
T2 sequence (Q03111 1-148): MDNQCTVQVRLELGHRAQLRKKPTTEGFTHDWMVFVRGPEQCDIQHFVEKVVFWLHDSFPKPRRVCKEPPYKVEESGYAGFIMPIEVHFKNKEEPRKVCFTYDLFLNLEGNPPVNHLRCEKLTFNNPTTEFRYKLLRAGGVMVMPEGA

MV4; 11 cells = test: MV4;11 proliferation assay (total viable cell count); assay type: cell-based; details: listed as Compound of Formula 69
Protocol: Proliferation assay. MV4; 11 cells were seeded at 20,000 cells/well in 96-well plates and treated with vehicle or drug, counted and reseeded at 20,000 cells/well every 3-4 days with freshly added vehicle or drug.

ENL protein = molecular target: T3, ENL protein (Homo sapiens, UniProt Q03111); test: ENL immunoblot CETSA on endogenous ENL in OCI/AML-2 cells; assay type: cell-based; details: 10 μM
T3 construct: performed on endogenous ENL protein by treating wild-type OCI-AML-2 cells with drug; endogenous in cells; host or cells: OCI/AML-2
T3 sequence (Q03111 1-559): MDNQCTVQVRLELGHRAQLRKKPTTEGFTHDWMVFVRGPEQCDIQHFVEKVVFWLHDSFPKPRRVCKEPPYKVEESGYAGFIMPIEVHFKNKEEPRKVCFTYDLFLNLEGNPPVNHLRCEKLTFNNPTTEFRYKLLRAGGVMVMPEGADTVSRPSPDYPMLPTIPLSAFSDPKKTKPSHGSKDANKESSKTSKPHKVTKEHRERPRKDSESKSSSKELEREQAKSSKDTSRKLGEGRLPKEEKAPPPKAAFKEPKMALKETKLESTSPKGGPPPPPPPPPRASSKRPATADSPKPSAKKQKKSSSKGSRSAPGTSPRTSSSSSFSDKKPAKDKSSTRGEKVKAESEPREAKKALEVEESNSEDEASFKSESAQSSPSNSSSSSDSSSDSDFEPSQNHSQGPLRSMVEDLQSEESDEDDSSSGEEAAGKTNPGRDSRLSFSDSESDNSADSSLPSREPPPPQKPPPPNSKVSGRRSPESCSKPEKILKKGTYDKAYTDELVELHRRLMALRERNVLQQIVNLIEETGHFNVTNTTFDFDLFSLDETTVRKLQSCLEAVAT
Protocol: Cellular thermal shift assay (CETSA). […] Briefly, cells were treated with drug, washed with PBS, heated to various temperatures in a thermocycler, cooled to room temperature, lysed by three rounds of freeze-thaw, and then clarified lystaes were subjected to immunoblot analysis.

[2] = Half-life in mouse liver microsomes; assay type: in vitro ADME
[3] = Half-life in human liver microsomes; assay type: in vitro ADME
[4] = read-out: t1/2 (min) mouse liver microsomes
[5] = read-out: t1/2 (min) human liver microsomes
[6] = without NADPH, read-out: t1/2 mouse (min liver microsomes (without NADPH))

| IC50 (ENL(YEATS)-HiBiT) | IC50 ([1]; Table 1) | IC50 ([1]; Table 2) | half-life [2, 4] | half-life [3, 5] | half-life ([3]; without NADPH, read-out: t1/2 (min) human liver microsomes (without NADPH)) | half-life [2, 6] | SMILES | inhibition of MV4:11 proliferation, total viable cell count (MV4; 11 cells) | stabilization of ENL protein, immunoblot analysis of CETSA (ENL protein) |
| --- | --- | --- | --- | --- | --- | --- | --- | --- | --- |
| 536 nM | 0.478 µM | 0.478 µM | 34.1 min | – | – | 138 min | O=C(CCN1CCCCC1)Nc1cccc(-c2cn3cc(C(=O)NC4CCC4)ccc3n2)c1 [Compound 102] | – | – |
| 2020 nM | 0.635 µM | 0.635 µM | 6.15 min | – | – | – | O=C(NC1CCC1)c1ccc2nc(-c3cccc(S(=O)(=O)NCCN4CCCCC4)c3)cn2c1 [Compound 107] | – | – |
| 1240 nM | 0.027 µM | 0.027 µM | 7.83 min | – | – | – | O=C(NC1CCC1)c1ccc2nc(-c3cccc(NS(=O)(=O)CCN4CCCCC4)c3)cn2c1 [Compound 106] | – | – |
| 2630 nM | 0.153 µM | 0.153 µM | 85.9 min | 104 min | – | – | O=C(NCCN1CCCCC1)Nc1cccc(-c2cn3cc(C(=O)NC4CCC4)ccc3n2)c1 [Compound 113] | – | – |
| 1030 nM | 0.134 µM | 0.134 µM | 14.5 min | – | – | – | O=C(NC1CCC1)c1ccc2nc(-c3cccc(NS(=O)(=O)CCCN4CCCCC4)c3)cn2c1 [Compound 104] | – | – |
| 3240 nM | 0.84 µM | 0.84 µM | 9.7 min | – | – | – | O=C(NC1CCC1)c1ccc2nc(-c3cccc(S(=O)(=O)NCCCN4CCCCC4)c3)cn2c1 [Compound 105] | – | – |

The remaining lines, values behind:

| SMILES | IC50 (ENL(YEATS)-HiBiT) | IC50 ([1]; Table 1) | IC50 ([1]; Table 2) | half-life [2, 4] | half-life [3, 5] | half-life ([3]; without NADPH, read-out: t1/2 (min) human liver microsomes (without NADPH)) | half-life [2, 6] | inhibition of MV4:11 proliferation, total viable cell count (MV4; 11 cells) | stabilization of ENL protein, immunoblot analysis of CETSA (ENL protein) |
| --- | --- | --- | --- | --- | --- | --- | --- | --- | --- |
| O=C(NC1CCC1)c1ccc2nc(-c3cccc(NS(=O)(=O)NCCc4c[nH]cn4)c3)cn2c1 [Compound 69, 2-(3-((N-(2-(1H-imidazol-4-yl)ethyl)sulfamoyl)amino)phenyl)-N-cyclobutylimidazo[1,2-a]pyridine-6-carboxamide] | 8400 nM | 0.1 µM | 0.1 µM | – | – | – | – | Inhibition of MV4:11 proliferations | stabilization of ENL protein |
| O=C(NCCN1CCCCC1)c1cccc(-c2cn3cc(C(=O)NC4CCC4)ccc3n2)c1 [Compound 108] | 630 nM | 0.124 µM | 0.124 µM | 28 min | 23.8 min | 537 min | – | – | – |
| O=C(NC1CCC1)c1ccc2nc(-c3cccc(NS(=O)(=O)NCCN4CCCCC4=O)c3)cn2c1 [Compound 95] | 1050 nM | 0.21 µM | 0.21 µM | 6.07 min | – | – | 504 min | – | – |
| COC1CCN(CCNS(=O)(=O)Nc2cccc(-c3cn4cc(C(=O)NC5CCC5)ccc4n3)c2)CC1 [Compound 94] | 1520 nM | 0.197 µM | 0.197 µM | 5.23 min | – | – | 774 min | – | – |
| O=C(CCN1CCOCC1)Nc1cccc(-c2cn3cc(C(=O)NC4CCC4)ccc3n2)c1 [Compound 110] | 5010 nM | 0.306 µM | 0.306 µM | 19.9 min | – | – | – | – | – |
| O=C(CCN1CCNCC1)Nc1cccc(-c2cn3cc(C(=O)NC4CCC4)ccc3n2)c1 [Compound 114] | 4500 nM | 0.261 µM | 0.261 µM | 323 min | 2960 min | – | – | – | – |
| O=C(CCCCN1CCCCC1)Nc1cccc(-c2cn3cc(C(=O)NC4CCC4)ccc3n2)c1 [Compound 103] | 2200 nM | 0.696 µM | 0.696 µM | 13.1 min | – | – | 16.1 min | – | – |
| O=C(CCN1CCCCC1=O)Nc1cccc(-c2cn3cc(C(=O)NC4CCC4)ccc3n2)c1 [Compound 109] | 8130 nM | 0.265 µM | 0.265 µM | 3.46 min | – | – | – | – | – |
| CC1(C)CCN(CCNS(=O)(=O)Nc2cccc(-c3cn4cc(C(=O)NC5CCC5)ccc4n3)c2)CC1 [Compound 101] | 297 nM | 0.062 µM | 0.062 µM | 2.29 min | – | – | 405 min | – | – |
